Experiments:
[1] = molecular target: T1, IRAK3 (Homo sapiens, UniProt Q9Y616); assay: IRAK3 biochemical binding assay (LanthaScreen Eu Kinase Binding, TR-FRET)
T1 construct: IRAK Endogenous HTRF Degradation Assay; endogenous in cells
T1 sequence (Q9Y616 1-596): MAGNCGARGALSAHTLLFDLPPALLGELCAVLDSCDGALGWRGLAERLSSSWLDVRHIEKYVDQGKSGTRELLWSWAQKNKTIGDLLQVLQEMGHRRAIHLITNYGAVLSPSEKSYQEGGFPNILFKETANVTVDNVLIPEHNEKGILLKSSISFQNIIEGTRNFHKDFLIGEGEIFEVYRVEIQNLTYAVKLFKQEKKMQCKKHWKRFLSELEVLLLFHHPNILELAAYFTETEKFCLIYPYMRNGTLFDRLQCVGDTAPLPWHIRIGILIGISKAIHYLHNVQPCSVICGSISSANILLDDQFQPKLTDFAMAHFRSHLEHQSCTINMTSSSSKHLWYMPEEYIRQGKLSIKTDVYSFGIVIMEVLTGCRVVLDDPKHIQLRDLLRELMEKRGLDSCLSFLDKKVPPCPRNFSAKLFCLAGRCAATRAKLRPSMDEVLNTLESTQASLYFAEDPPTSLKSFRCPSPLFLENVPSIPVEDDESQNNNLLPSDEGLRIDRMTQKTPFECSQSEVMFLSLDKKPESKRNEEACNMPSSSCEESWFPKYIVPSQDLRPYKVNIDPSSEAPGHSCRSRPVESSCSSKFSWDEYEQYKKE
Summary of the method: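 TR-FRET tracer-displacement binding with 10 nM IRAK3, 2 nM Eu-anti-GST antibody and 10 nM tracer in 50 mM HEPES pH 7.4, MgCl2, 1 mM EGTA, 0.01% Brij-35. Compounds in 3-fold dilutions, 1 h at room temperature. 665/615 nm ratio gave % inhibition; IC50 and Hill slope from dose-response fit.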

[2] = molecular target: T1, IRAK3; assay: IRAK endogenous HTRF degradation assay (Total-IRAK3 HTRF kit); format: cell-based; conditions: overnight incubation, lowest percentage of protein remaining
Experimental: Example B2. IRAK Endogenous HTRF Degradation Assay
Cells (~50 k) were plated in Cisbio 96-well low volume white plates (Cisbio: cat #66PL96005). Compounds were dissolved in DMSO and a 3-fold serial dilution was performed using a TECAN D300E. Cells were incubated with the compound overnight. Total-IRAK3 HTRF kit from Cisbio was used for degradation analysis (Cisbio: 63ADK101PEH). Cryptate and D2 antibodies were diluted in Detection buffer as per manufacturers recommendation. Then 2 μL of each solution was added to 16 μL lysate. Buffer control (lysis buffer detection buffer), Cryptate control (lysis buffer+cryptate antibody+detection buffer), and Negative control (lysis buffer+cryptate antibody+D2 antibody) were made as per manufacturers recommendation. Post incubation with antibodies the HTRF signal was measured using a Perkin Elmer Envision reader and the HTRF signal was calculated using formula: (Emission at 665 nm/Emission at 615 nm)*10,000. All HTRF values were normalized to the average value of DMSO. The average value of the DMSO control wells were set to equal 100% of the relative IRAK3 protein levels. Normalized luminescence values were plotted on a graph as a function of compound concentration. Compound concentration was plotted on the x-axis and the corresponding normalized IRAK3 protein levels on the y-axis. The EC50 value (the half-maximum effective concentration) of a compound for the degradation of the IRAK3 was calculated using a four-parameter logistic model (sigmoidal dose-response model) (FIT=(A+{(B−A)/1+[(C/x)D]})) where C is the inflection point (EC50), D is the […], and A and B are the low and high limits of the fit, respectively). The Ymin was calculated by determining the lowest percentage of target protein remaining following compound treatment. Dmax was calculated from Ymin (% Dmax=100−Ymin).
Using these assays, IC50, Dmax, EC50, and DC50 values of the following compounds were determined. Dmax is defined as the maximum percent degradation achieved and DC50 is the concentration at which 50% degradation is achieved.

[3] = molecular target: T2, IRAK3-ePL (Homo sapiens, UniProt Q9Y616); assay: IRAK3-ePL overexpressing degradation assay (InCELL Hunter luminescence, dose response); format: cell-based; conditions: for IRAK3 ePL degradation Ymin: lowest percentage of target protein remaining following compound treatment; for DC50: read-out: IRAK3 ePL degradation EC50
T2 construct: expressed in transfected cells; host or cells: 293T CRBN OE/GSPT1 G575N KI cells, lentiviral transduction, puromycin selected
Summary of the method: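 Lenti-X 293T CRBN/GSPT1 G575N cells stably expressing IRAK3-ePL (5,000/well) treated overnight at 37° C with 10-point 3-fold dilutions from 10 μM, 0.2% DMSO. InCELL Hunter luminescence, background subtracted using Ataluren wells and normalized to DMSO; EC50 from four-parameter logistic fit.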

SMILES	IC50 [1]	IRAK3 HTRF degradation Ymin [2]	IRAK3 ePL degradation Ymin [3]	DC50 [3]
Cc1cc(-c2cnc(Nc3cnn(C4CCN(C(=O)CN5CCN(c6ccc7c(c6)C(=O)N(C6CCC(=O)NC6=O)C7=O)CC5)CC4)c3)c3nccn23)c(F)cc1F (stereo not shown) [Compound 24, 5-(4-(2-(4-(4-((5-(2,4-difluoro-5-methylphenyl)imidazo[1,2-a]pyrazin-8-yl)amino)-1H-pyrazol-1-yl)piperidin-1-yl)-2-oxoethyl)piperazin-1-y1)-2-(2,6-dioxopiperidin-3-yl)isoindoline-1,3-dione]	4.6 nM	25%		
COc1cc(N2CCN(CCN3CCC(n4cc(Nc5ncc(-c6cc(C)c(F)cc6F)n6ccnc56)cn4)CC3)CC2)ccc1C1CCC(=O)NC1=O (stereo not shown) [Compound 25, 3-(4-(4-(2-(4-(4-((5-(2,4-difluoro-5-methylphenyl)imdazo [1,2-a]pyrazin-8-yl)amino)-1H-pyrazol-1-yl)piperidin-1-yl)ethyl)piperazin-1-yl)-2-methoxyphenyl) piperidine-2,6-dione]	1.7 nM	18%		
Cc1cc(-c2cnc(Nc3cnn(C4CCN(CCN5CCN(c6ccc(C7CCC(=O)N(C)C7=O)cc6)CC5)CC4)c3)c3nccn23)c(F)cc1F (stereo not shown) [Compound 55, 3-(4-(4-(2-(4-(4-((5-(2,4-difluoro-5-methylphenyl)imdazo [1,2-a]pyrazin-8-yl)amino)-1H-pyrazol-1-yl)piperidin-1-yl)ethyl)piperazin-1-yl)phenyl)-1-methylpiperidine-2,6-dione]		64%	84%	1100 nM
Cc1cc(-c2cnc(Nc3cnn(C4CCN(CCN5[C@@H](C)CN(c6ccc(C7CCC(=O)NC7=O)cc6)C[C@@H]5C)CC4)c3)c3nccn23)c(F)cc1F (stereo partly drawn) [Compound 56, 3-(4-((3S,5S)-4-(2-(4-(4-((5-(2,4-difluoro-5-methylphenyl)imdazo [1,2-a]pyrazin-8-yl)amino)-1H-pyrazol-1-yl)piperidin-1-yl)ethyl)-3,5-dimethylpiperazin-1-yl)phenyl) piperidine-2,6-dione]		8.6%	23%	0.75 nM
Cc1cc(-c2cnc(Nc3cnn([C@H]4CC[C@H](CCN5CCN(c6ccc(C7CCC(=O)NC7=O)cc6)C[C@@H]5C)CC4)c3)c3nccn23)c(F)cc1F (stereo partly drawn) [Compound 57, 3-(4-((S)-4-(2-((trans)-4-(4-((5-(2,4-difluoro-5-methylphenyl)imidazo[1,2-a]pyrazin-8-yl)amino)-1H-pyrazol-1-yl)cyclohexyl)ethyl)-3-methylpiperazin-1-yl)phenyl) piperidine-2,6-dione]		8.72%	24%	5.7 nM
Cc1cc(-c2cnc(Nc3cnn(C4CCN(CCN5[C@H](C)CN(c6ccc(C7CCC(=O)NC7=O)cc6)C[C@H]5C)CC4)c3)c3nccn23)c(F)cc1F (stereo partly drawn) [Compound 58, 3-(4-((3R,5R)-4-(2-(4-(4-((5-(2,4-difluoro-5-methylphenyl)imdazo [1,2-a]pyrazin-8-yl)amino)-1H-pyrazol-1-yl)piperidin-1-yl)ethyl)-3,5-dimethylpiperazin-1-yl)phenyl) piperidine-2,6-dione]		9.7%	25%	0.98 nM
Cc1cc(-c2cnc(Nc3cnn([C@@H]4CCN(CCN5CCN(c6ccc(C7CCC(=O)NC7=O)cc6)C[C@@H]5C)[C@H](C)C4)c3)c3nccn23)c(F)cc1F (stereo partly drawn) [Compound 59, 3-(4-((S)-4-(2-((2R,4R)-4-(4-((5-(2,4-difluoro-5-methylphenyl)imdazo [1,2-a]pyrazin-8-yl)amino)-1H-pyrazol-1-yl)-2-methylpiperidin-1-yl)ethyl)-3-methylpiperazin-1-yl)phenyl) piperidine-2,6-dione]		7.5%	21%	0.51 nM
Cc1cc(-c2cnc(N[C@@H]3CCN(C4CCN(CCN5CCN(c6ccc(C7CCC(=O)NC7=O)cc6)CC5)CC4)C3)c3nccn23)c(F)cc1F (stereo partly drawn) [Compound 60, 3-(4-(4-(2-(4-((R)-3-((5-(2,4-difluoro-5-methylphenyl)imdazo [1,2-a]pyrazin-8-yl)amino)pyrrolidin-1-yl)piperidin-1-yl)ethyl)piperazin-1-yl)phenyl) piperidine-2,6-dione]		96%	92%	0.51 nM
Cc1cc(-c2cnc(Nc3cnn(C4CCN(CCN5CCN(c6ccc(C7CCC(=O)NC7=O)cc6)CC5)CC4)c3)c3ncc(C)n23)c(F)cc1F (stereo not shown) [Compound 61, 3-(4-(4-(2-(4-(4-((5-(2,4-difluoro-5-methylphenyl)-3-methylimidazo[1,2-a]pyrazin-8-yl)amino)-1H-pyrazol-1-yl)piperidin-1-yl)ethyl)piperazin-1-yl)phenyl) piperidine-2,6-dione]		20%	41%	18 nM
Cc1cc(-c2cnc(Nc3cnn([C@H]4CCN(CCN5CCN(c6ccc(C7CCC(=O)NC7=O)cc6)CC5)C[C@H]4F)c3)c3nccn23)c(F)cc1F (stereo partly drawn) [Compound 63, 3-(4-(4-(2-((3R,4S)-4-(4-((5-(2,4-difluoro-5-methylphenyl)imdazo [1,2-a]pyrazin-8-yl)amino)-1H-pyrazol-1-yl)-3-fluoropiperidin-1-yl)ethyl)piperazin-1-yl)phenyl) piperidine-2,6-dione]		8.9%	25%	0.51 nM
Cc1cccc(-c2cnc(Nc3cnn([C@H]4CC[C@H](CCN5CCN(c6ccc(C7CCC(=O)NC7=O)cc6)CC5)CC4)c3)c3nccn23)c1 (stereo partly shown) [Compound 64]		8.6%	25%	4.2 nM
Cc1cc(-c2cnc(N[C@H]3CCN(C4CCN(CCN5CCN(c6ccc(C7CCC(=O)NC7=O)cc6)CC5)CC4)C3)c3nccn23)c(F)cc1F (stereo partly drawn) [Compound 65, 3-(4-(4-(2-(4-((S)-3-((5-(2,4-difluoro-5-methylphenyl)imdazo [1,2-a]pyrazin-8-yl)amino)pyrrolidin-1-yl)piperidin-1-yl)ethyl)piperazin-1-yl)phenyl) piperidine-2,6-dione]		96%	86%	3300 nM
Cn1cc(-c2cnc(Nc3cnn(C4CCN(CCN5CCN(c6ccc(C7CCC(=O)NC7=O)cc6)CC5)CC4)c3)c3nccn23)cn1 (stereo not shown) [Compound 73, 3-(4-(4-(2-(4-(4-((5-(1-methyl-1H-pyrazol-4-yl)imidazo[1,2-a]pyrazin-8-yl)amino)-1H-pyrazol-1-yl)piperidin-1-yl)ethyl)piperazin-1-yl)phenyl) piperidine-2,6-dione]		9.1%	24%	0.51 nM

Source: patent US20260216347A1, “Substituted Imidazo-Based Compounds as Ligand Directed Degraders of IRAK3” (Celgene Corporation, priority 2022, published 2026)
